# Test results: patent US20150158956A1, “MULTIVALENT ANTIVIRAL COMPOSITIONS, METHODS OF MAKING, AND USES THEREOF” (The Charles Stark Draper Laboratory, Inc., priority 2013, published 2015)
# Tests used:
# RSV strain A2 = assay: RSV plaque assay on Vero cell monolayers, sample pre-mixed with RSV strain A2 (Example 7); format: cell-based, respiratory syncytial virus; settings: in solution; Vero cells; 200 PFU RSV strain A2, 30 min at 37° C. pre-mix; read-out: concentration achieving a 50% reduction in RSV infectivity
# Protocol: The ability of liposomes to block RSV infection of Vero cells was examined. The blocking ability of liposomes was compared to purified sulfated octasaccharide, in solution, and a control, i.e., a liposome without sulfated octasaccharides. Liposomes were prepared using the method described in Example 3. […] Purified sulfated octasaccharide as described in Example 1, in solution or incorporated into liposomes, at the concentrations indicated were assessed using a plaque assay. Confluent Vero cell monolayers were formed by adding 1×10^6 Vero cells to wells of a 12-well plate then incubating the cells in 1 ml Dulbecco's Modified Eagle Medium (DMEM) with 4 mM glutamine and 10% fetal bovine serum as growth medium. The medium was removed from the cells. Sulfated octasaccharide, liposomes, or buffer at the concentrations indicated (see FIG. 5) were mixed with 200 PFU RSV strain A2 in 150 mM phosphate buffered saline for 30 min at 37° C. and the mixture was added to the monolayer surface. After one hour, the mixtures were removed, and the cells were washed and overlaid with 1 ml plaquing medium (DMEM with 4 mM glutamine, 2% FBS, and 0.4% agarose). After 5 to 7 days incubation at 37° C., the number of RSV plaques was counted. Liposome treated virus was compared to untreated virus, which represented 100% infectivity.
# [1] = test system: respiratory syncytial virus (RSV); assay: RSV plaque (PFU) assay, sample added to Vero cells simultaneously with RSV (Example 6); format: cell-based
# Protocol: The ability of purified sulfated octasaccharide, in solution, to block respiratory syncytial virus (RSV) infection of Vero cells was examined. The blocking ability of purified sulfated octasaccharide was compared to heparin sodium.
# Purified sulfated octasaccharide was prepared according to the method of Example 1. Vero cells were seeded into 24-well plates and incubated at 37° C. for 24 hours to form monolayers. Samples were diluted to the desired concentration in sterile DMEM in a final volume of 225 μl. Full-length heparin sodium (the starting material) or purified HSocta was added to Vero cells simultaneously with RSV that was diluted to 300 PFU/mL then incubated at 37° C. for 30 min. Vero cells were washed with PBS and samples were incubated at 37° C. for 1 hour on Vero cells and then washed with PBS and incubated with DMEM containing 10% FBS and incubated at 37° C. for 72 h. Cells were fixed and stained with anti-glycoprotein F and anti-glycoprotein G antibodies (MAB858-2 and MAB8262F Millipore, Billerica, Mass.). Plaques were visualized with anti-mouse horseradish peroxidase-conjugated secondary antibody (BD Biosciences, San Jose, Calif.) and developed with peroxidase substrate kit (Vector Laboratories, Burlingame, Calif.). Viral plaques in the Vero monolayer were counted and the PFU/mL was determined.
substance,measurement,setting,value
GlcUA(2S)-GlcNS(6S)-Ido(2S)-GlcNS(6S)-Ido(2S)-GlcNS(6S)-Ido(2S)-GlcNS(6S) [purified sulfated octasaccharide],IC50,RSV strain A2,~500 µM
same,blocking PFU formation,"[1]; at 1 μg/ml or higher, RSV, Vero cells (results text says MDCK cells)",roughly 50%
same,"anti-RSV properties, ability to block infection of cells","[1]; in solution, results text says MDCK cells",strong anti-RSV properties
